Read-outs that look alike come from different tables or passages of the source.
Legend:
[1] = system: acetic acid‐induced writhings in male CD‐1 mice; assay: Acetic acid‐induced writhing test in mice with PK/PD model; conditions: for interindividual variability in the k 2, percent coefficient of variation: single‐agent model
plasma protein [2] = conditions: cited from earlier work
plasma protein [3] = conditions: cited from earlier work; remark: listed apart in the source
[4] = Population PK of trazodone and gabapentin as single agents in mice; type: in vivo; conditions: for D 1 (duration of the zero‐order absorption) / k 12 (intercompartment rate constant) / k 21 (intercompartment rate constant): male mice, fasting, population PK estimate; for Inter‐individual variability ω2 of V / Inter‐individual variability ω2 of k / Inter‐individual variability ω2 of k12: mice, population PK variance estimate; for Vd/F / k el: male, mouse, plasma
[5] = system: thermal hyperalgesia in CCI rat model; conditions: cited from earlier work
[6] = system: patients with diabetes with peripheral neuropathy / painful distal symmetrical polyneuropathy; conditions: cited from earlier work
[7] = combination model, interaction (synergism), trazodone‐gabapentin 0.075–1.5, 0.15–1.5 mg/kg
[8] = combination model, pure additivity, trazodone‐gabapentin 0.075–1.5, 0.15–1.5 mg/kg
[9] = combination model, pure additivity, trazodone‐gabapentin 0.5–5, 1.5–15 mg/kg
[10] = single model, gabapentin i.p. 1.5, 5 and 15 mg/kg
[11] = gabapentin 10, 30 and 100 mg/kg
[12] = 31 patients, oral trazodone 50 or 100 mg/day for 2 weeks

NCC1(CC(=O)O)CCCCC1 [Gabapentin]
Interindividual variance ω2 of k2 [1, 7]: 1.78
k 2 (potency parameter) [1, 7]: 817 M⁻¹ s⁻¹
Interindividual variability ω2 of k2 [1, 8]: 1.67
k 2 (potency parameter) [1, 8]: 1350 M⁻¹ s⁻¹
Interindividual variability ω2 of k2 [1, 9]: 1.71
k 2 (potency parameter) [1, 9]: 667 M⁻¹ s⁻¹
antinociceptive effect (number of writhes vs vehicle) ([1]; gabapentin alone 1.5 mg/kg i.p.): ineffective
antinociceptive effect (number of writhes vs vehicle) ([1]; gabapentin alone 5 or 15 mg/kg i.p., p < 0.001): significant reduction of the writhes number
Interindividual variability ω2 of k2 [1, 10]: 1.97
k 2 (potency parameter) [1, 10]: 765 M⁻¹ s⁻¹
interindividual variability in the k 2, percent coefficient of variation [1]: 140
plasma protein binding (plasma protein [2]; humans): not protein‐bound
plasma protein binding (plasma protein [3]; mice): not protein‐bound
D 1 (duration of the zero‐order absorption) [4, 11]: 0.167 h
k 12 (intercompartment rate constant) [4, 11]: 0.935 h⁻¹
k 21 (intercompartment rate constant) [4, 11]: 0.110 h⁻¹
Inter‐individual variability ω2 of V [4, 11]: 0.00287
Inter‐individual variability ω2 of k [4, 11]: 0.337
Inter‐individual variability ω2 of k12 [4, 11]: 1.43
Vd/F ([4]; 100 mg/kg): 0.846 L/kg
k el ([4]; 100 mg/kg): 3.11e-05 s⁻¹

O=c1n(CCCN2CCN(c3cccc(Cl)c3)CC2)nc2ccccn12 [Trazodone]
Interindividual variance ω2 of k2 [1, 7]: 1.42
k 2 (potency parameter) [1, 7]: 182000 M⁻¹ s⁻¹
Interindividual variability ω2 of k2 [1, 8]: 1.43
k 2 (potency parameter) [1, 8]: 212000 M⁻¹ s⁻¹
Interindividual variability ω2 of k2 [1, 9]: 1.40
k 2 (potency parameter) [1, 9]: 170000 M⁻¹ s⁻¹
k 2 (potency parameter) ([1]; single model, trazodone o.s. 0.075, 0.15, 0.5, 1.5, 2.5 and 4.5 mg/kg): 182000 M⁻¹ s⁻¹
Interindividual variability ω2 of k2 ([1]; single model, trazodone o.s. 0.075-4.5 mg/kg): 1.42
interindividual variability in the k 2, percent coefficient of variation [1]: 119
antinociceptive effect (number of writhes vs vehicle) ([1]; trazodone alone 0.075 or 0.15 mg/kg o.s.): ineffective
antinociceptive effect (number of writhes vs vehicle) ([1]; trazodone alone 0.5 or 1.5 mg/kg o.s., p < 0.001): significant reduction of the writhes number
plasma protein binding (plasma protein [2]; human, ref internal unpublished data): 97%
plasma protein binding (plasma protein [3]; mouse, ref internal unpublished data): 89%
effect on thermal hyperalgesia [5]: dose‐dependent analgesic effect
patients who experienced complete relief [6, 12]: 22.6%
patients who experienced symptomatic relief [6, 12]: 61.3%
effect on pain and numbness ([6]; six patients with diabetes affected by peripheral neuropathy, 100 mg/day): good effect in pain relief and numbness
Vd/F ([4]; 10 mg/kg): 5.95 L/kg
k el ([4]; 10 mg/kg): 0.000347 s⁻¹
D 1 (duration of the zero‐order absorption) ([4]; trazodone 1, 3 and 10 mg/kg): 0.0833 h
k 12 (intercompartment rate constant) ([4]; trazodone 1, 3 and 10 mg/kg): 0.982 h⁻¹
k 21 (intercompartment rate constant) ([4]; trazodone 1, 3 and 10 mg/kg): 1.51 h⁻¹
Inter‐individual variability ω2 of V ([4]; trazodone 1, 3 and 10 mg/kg): 0.0526
Inter‐individual variability ω2 of k ([4]; trazodone 1, 3 and 10 mg/kg): 0.00899
Inter‐individual variability ω2 of k12 ([4]; trazodone 1, 3 and 10 mg/kg): 0.577
